Assay results published in ChEMBL document CHEMBL3885861, “Open TG-GATES”.

Species: Rattus norvegicus
Assay: Open TG-GATES - Regimen: Single
Format: toxicity, organism-based, Sprague-Dawley
Set-up: regimen Single, gender Male, age 6 weeks
Conditions: in vivo, po, 0 mg/kg, route gavage, dose level Control; for APTT / Bas / Eos / Fbg / Hb / Ht / Lym / MCH / MCHC / MCV / Mono / Neu / PT / Plat / RBC / Ret / WBC: tissue Blood; for KIDNEY_L / KIDNEY_R / KIDNEY_TOTAL: tissue Kidney; for LIVER: tissue Liver; for A/G / ALP / ALT / AST / BUN / CRE / Ca / Cl / DBIL / GLC / IP / K / LDH / Na / PL / RALB / TBIL / TC / TG / TP / gamma-GTP: tissue Plasma

SMILES: CNC(=C[N+](=O)[O-])NCCSCc1ccc(CN(C)C)o1 [RANITIDINE]
- TERMINAL_BW (3 h): 216.9 g
- APTT (3 h): 20.3 s
- Bas (3 h): 0%
- Eos (3 h): 0.4%
- Fbg (3 h): 215 mg/dL
- Hb (3 h): 13.7 g/dL
- Ht (3 h): 39.6%
- Lym (3 h): 83.4%
- MCH (3 h): 21.8 pg
- MCHC (3 h): 34.7%
- MCV (3 h): 62.8 fL
- Mono (3 h): 2.6%
- Neu (3 h): 10.2%
- PT (3 h): 12.4 s
- Plat (3 h): 114.3 x10_4/uL
- RBC (3 h): 632.2 x10_4/ul
- Ret (3 h): 6.8%
- WBC (3 h): 87.5 x10_2/uL
- KIDNEY_L (3 h): 1 g
- KIDNEY_R (3 h): 1 g
- KIDNEY_TOTAL (3 h): 1.9 g
- LIVER (3 h): 9.7 g
- A/G (3 h): 1.6
- ALP (3 h): 1059 IU/L
- ALT (3 h): 36.4 IU/L
- AST (3 h): 70.2 IU/L
- BUN (3 h): 10.8 mg/dL
- CRE (3 h): 0.4 mg/dL
- Ca (3 h): 10.8 mg/dL
- Cl (3 h): 103 meq/L
- DBIL (3 h): 0.068 mg/dL
- GLC (3 h): 188.2 mg/dL
- IP (3 h): 8.4 mg/dL
- K (3 h): 3.8 meq/L
- LDH (3 h): 130.4 IU/L
- Na (3 h): 140.8 meq/L
- PL (3 h): 136.8 mg/dL
- RALB (3 h): 3.3 g/dL
- TBIL (3 h): 0.1 mg/dL
- TC (3 h): 75.2 mg/dL
- TG (3 h): 50.8 mg/dL
- TP (3 h): 5.3 g/dL
- gamma-GTP (3 h): 1 IU/L
- TERMINAL_BW (6 h): 213.6 g
- APTT (6 h): 19.4 s
- Bas (6 h): 0%
- Eos (6 h): 1%
- Fbg (6 h): 238.2 mg/dL
- Hb (6 h): 13.6 g/dL
- Ht (6 h): 38.7%
- Lym (6 h): 79%
- MCH (6 h): 22.3 pg
- MCHC (6 h): 35%
- MCV (6 h): 63.7 fL
- Mono (6 h): 2.6%
- Neu (6 h): 15.8%
- PT (6 h): 12.2 s
- Plat (6 h): 123.3 x10_4/uL
- RBC (6 h): 608.8 x10_4/ul
- Ret (6 h): 7.6%
- WBC (6 h): 97.4 x10_2/uL
- KIDNEY_L (6 h): 0.9 g
- KIDNEY_R (6 h): 0.9 g
- KIDNEY_TOTAL (6 h): 1.9 g
- LIVER (6 h): 9.5 g
- A/G (6 h): 1.7
- ALP (6 h): 839.8 IU/L
- ALT (6 h): 35.2 IU/L
- AST (6 h): 64.6 IU/L
- BUN (6 h): 10.2 mg/dL
- CRE (6 h): 0.4 mg/dL
- Ca (6 h): 10.7 mg/dL
- Cl (6 h): 102.8 meq/L
- DBIL (6 h): 0.066 mg/dL
- GLC (6 h): 195.2 mg/dL
- IP (6 h): 8.6 mg/dL
- K (6 h): 3.9 meq/L
- LDH (6 h): 111 IU/L
- Na (6 h): 140.2 meq/L
- PL (6 h): 146 mg/dL
- RALB (6 h): 3.4 g/dL
- TBIL (6 h): 0.1 mg/dL
- TC (6 h): 84.2 mg/dL
- TG (6 h): 55.4 mg/dL
- TP (6 h): 5.4 g/dL
- gamma-GTP (6 h): 1 IU/L
- TERMINAL_BW (9 h): 211.2 g
- APTT (9 h): 20.2 s
- Bas (9 h): 0%
- Eos (9 h): 1%
- Fbg (9 h): 230 mg/dL
- Hb (9 h): 13.6 g/dL
- Ht (9 h): 39.1%
- Lym (9 h): 81%
- MCH (9 h): 21.7 pg
- MCHC (9 h): 34.8%
- MCV (9 h): 62.4 fL
- Mono (9 h): 2%
- Neu (9 h): 14.2%
- PT (9 h): 12.3 s
- Plat (9 h): 120.9 x10_4/uL
- RBC (9 h): 627.6 x10_4/ul
- Ret (9 h): 7%
- WBC (9 h): 71.4 x10_2/uL
- KIDNEY_L (9 h): 1 g
- KIDNEY_R (9 h): 1 g
- KIDNEY_TOTAL (9 h): 1.9 g
- LIVER (9 h): 8.8 g
- A/G (9 h): 1.6
- ALP (9 h): 783.8 IU/L
- ALT (9 h): 29.8 IU/L
- AST (9 h): 62.8 IU/L
- BUN (9 h): 10 mg/dL
- CRE (9 h): 0.4 mg/dL
- Ca (9 h): 10.5 mg/dL
- Cl (9 h): 103.2 meq/L
- DBIL (9 h): 0.066 mg/dL
- GLC (9 h): 210.8 mg/dL
- IP (9 h): 8.5 mg/dL
- K (9 h): 3.9 meq/L
- LDH (9 h): 122.8 IU/L
- Na (9 h): 141.2 meq/L
- PL (9 h): 134 mg/dL
- RALB (9 h): 3.4 g/dL
- TBIL (9 h): 0.1 mg/dL
- TC (9 h): 76.8 mg/dL
- TG (9 h): 28.8 mg/dL
- TP (9 h): 5.5 g/dL
- gamma-GTP (9 h): 1.2 IU/L
- TERMINAL_BW (24 h): 228.8 g
- APTT (24 h): 21.3 s
- Bas (24 h): 0.2%
- Eos (24 h): 1%
- Fbg (24 h): 227.4 mg/dL
- Hb (24 h): 13.7 g/dL
- Ht (24 h): 39.1%
- Lym (24 h): 83.6%
- MCH (24 h): 22.5 pg
- MCHC (24 h): 35.2%
- MCV (24 h): 63.9 fL
- Mono (24 h): 2.2%
- Neu (24 h): 11.8%
- PT (24 h): 11.9 s
- Plat (24 h): 130.4 x10_4/uL
- RBC (24 h): 611.2 x10_4/ul
- Ret (24 h): 6.6%
- WBC (24 h): 112 x10_2/uL
- KIDNEY_L (24 h): 1 g
- KIDNEY_R (24 h): 1 g
- KIDNEY_TOTAL (24 h): 2.1 g
- LIVER (24 h): 10.9 g
- A/G (24 h): 1.6
- ALP (24 h): 872.4 IU/L
- ALT (24 h): 38.8 IU/L
- AST (24 h): 62.6 IU/L
- BUN (24 h): 16 mg/dL
- CRE (24 h): 0.4 mg/dL
- Ca (24 h): 10.8 mg/dL
- Cl (24 h): 102.4 meq/L
- DBIL (24 h): 0.094 mg/dL
- GLC (24 h): 190.2 mg/dL
- IP (24 h): 7.7 mg/dL
- K (24 h): 4.1 meq/L
- LDH (24 h): 121 IU/L
- Na (24 h): 140.6 meq/L
- PL (24 h): 148.8 mg/dL
- RALB (24 h): 3.5 g/dL
- TBIL (24 h): 0.1 mg/dL
- TC (24 h): 77.2 mg/dL
- TG (24 h): 78.6 mg/dL
- TP (24 h): 5.7 g/dL
- gamma-GTP (24 h): 1 IU/L
